# Test results published in ChEMBL document CHEMBL1137667, “Pyrrolidine dithiocarbamate and diethyldithiocarbamate are active against growing and nongrowing persister Mycobacterium tuberculosis” (2007).
# Calls of active or inactive are those of the source. The calls are words filed in the database; no cut-off is given here.
# Legend:
# [1] = tested on: Mycobacterium tuberculosis; assay: Antimicrobial activity against 2 weeks old culture of Mycobacterium tuberculosis H37Ra assessed as colony forming unit at 100 ug/ml for 3 days at pH 5.5; type: functional
# [2] = tested on: Mycobacterium tuberculosis; assay: Antimicrobial activity against 2 months old culture of Mycobacterium tuberculosis H37Ra assessed as colony forming unit at 100 ug/ml for 3 days at pH 5.5; type: functional
# [3] = tested on: Mycobacterium tuberculosis; assay: Antimicrobial activity against 3 weeks old culture of Mycobacterium tuberculosis H37Ra assessed as colony forming unit in aerobic condition at 2 ug/ml for 3 hrs; type: functional
# [4] = tested on: Mycobacterium tuberculosis; assay: Antimicrobial activity against 2 months old culture of Mycobacterium tuberculosis H37Ra assessed as colony forming unit at 10 ug/ml for 3 days at pH 5.5; type: functional
# [5] = tested on: Mycobacterium tuberculosis; assay: Antimicrobial activity against 3 weeks old culture of Mycobacterium tuberculosis H37Ra assessed as colony forming unit in hypoxic condition at 2 ug/ml for 3 hrs; type: functional
# [6] = tested on: Mycobacterium tuberculosis; assay: Antimicrobial activity against 3 weeks old culture of Mycobacterium tuberculosis H37Ra assessed as colony forming unit in aerobic condition at 10.3 ug/ml for 3 hrs; type: functional
# [7] = tested on: Mycobacterium tuberculosis; assay: Antimicrobial activity against 3 weeks old culture of Mycobacterium tuberculosis H37Ra assessed as colony forming unit in hypoxic condition at 10.3 ug/ml for 3 hrs; type: functional
# [8] = tested on: Mycobacterium tuberculosis; assay: Antimicrobial activity against Mycobacterium tuberculosis H37Rv; type: functional
# [9] = tested on: Mycobacterium tuberculosis; assay: Antimicrobial activity against 3 weeks old culture of Mycobacterium tuberculosis H37Ra assessed as colony forming unit in hypoxic condition at 4.5 ug/ml for 3 hrs; type: functional
# [10] = tested on: Mycobacterium tuberculosis; assay: Antimicrobial activity against 2 months old culture of Mycobacterium tuberculosis H37Ra assessed as colony forming unit at 5 ug/ml for 3 days at pH 5.5; type: functional
# [11] = tested on: Mycobacterium tuberculosis; assay: Antimicrobial activity against 2 months old culture of Mycobacterium tuberculosis H37Ra assessed as colony forming unit at 4.5 ug/ml for 3 days at pH 5.5; type: functional
# [12] = tested on: Mycobacterium tuberculosis; assay: Antimicrobial activity against 3 weeks old culture of Mycobacterium tuberculosis H37Ra assessed as colony forming unit at 4.5 ug/ml for 3 days at pH 7; type: functional
# [13] = tested on: Mycobacterium tuberculosis; assay: Antimicrobial activity against 3 weeks old culture of Mycobacterium tuberculosis H37Ra assessed as colony forming unit at 4.5 ug/ml for 3 days at pH 5.5; type: functional
# [14] = tested on: Mycobacterium tuberculosis; assay: Antimicrobial activity against 1 month old culture of Mycobacterium tuberculosis H37Ra assessed as colony forming unit at 10 ug/ml for 3 days at pH 5.5; type: functional
# [15] = tested on: Mycobacterium tuberculosis; assay: Antimicrobial activity against 2 months old culture of Mycobacterium tuberculosis H37Ra assessed as colony forming unit at 4.5 ug/ml for 3 days at pH 7; type: functional
# [16] = tested on: Mycobacterium tuberculosis; assay: Antimicrobial activity against Mycobacterium tuberculosis infected in human monocytes; type: functional
# [17] = tested on: Mycobacterium tuberculosis; assay: Antimicrobial activity against 3 weeks old culture of Mycobacterium tuberculosis H37Ra assessed as colony forming unit in aerobic condition at 4.5 ug/ml for 3 hrs; type: functional
# [18] = tested on: Mycobacterium tuberculosis; assay: Antimicrobial activity against 3 weeks old culture of Mycobacterium tuberculosis H37Rv assessed as 1:4 serum inhibitory titers treated with blood from 100 mg/kg, po dosed Swiss mouse collected after 2 hrs; type: functional, organism-based; parameters: dose 100 mg/kg
# [19] = tested on: Mycobacterium tuberculosis; assay: Antimicrobial activity against 3 weeks old culture of Mycobacterium tuberculosis H37Rv assessed as 1:2 serum inhibitory titers treated with blood from 100 mg/kg, po dosed Swiss mouse collected after 2 hrs; type: functional, organism-based; parameters: dose 100 mg/kg
# [20] = tested on: Mycobacterium tuberculosis; assay: Antimicrobial activity against 2 months old culture of Mycobacterium tuberculosis H37Ra assessed as colony forming unit at 3.3 ug/ml for 3 days at pH 5.5; type: functional
# [21] = tested on: Mycobacterium tuberculosis; assay: Antimicrobial activity against 3 weeks old culture of Mycobacterium tuberculosis H37Ra assessed as colony forming unit at 3.3 ug/ml for 3 days at pH 5.5; type: functional
# [22] = tested on: Escherichia coli; assay: Antimicrobial activity against Escherichia coli DH5alpha; type: functional
# [23] = tested on: Mycobacterium tuberculosis; assay: Antimicrobial activity against 3 weeks old culture of Mycobacterium tuberculosis H37Ra assessed as colony forming unit in aerobic condition at 3.3 ug/ml for 3 hrs; type: functional
# [24] = tested on: Mycolicibacterium smegmatis; assay: Antimicrobial activity against Mycobacterium smegmatis mc26; type: functional
# [25] = tested on: Mycobacterium tuberculosis; assay: Antimicrobial activity against Mycobacterium tuberculosis H37Rv assessed as drug concentration required to kill 99% of the inoculum; type: functional
# [26] = tested on: Mycobacterium tuberculosis; assay: Antimicrobial activity against 3 weeks old culture of Mycobacterium tuberculosis H37Ra assessed as colony forming unit at 3.3 ug/ml for 3 days at pH 7; type: functional
# [27] = tested on: Mycobacterium tuberculosis; assay: Antimicrobial activity against 2 months old culture of Mycobacterium tuberculosis H37Ra assessed as colony forming unit at 3.3 ug/ml for 3 days at pH 7; type: functional
# [28] = tested on: Mycobacterium tuberculosis; assay: Antimicrobial activity against 3 weeks old culture of Mycobacterium tuberculosis H37Ra assessed as colony forming unit in hypoxic condition at 3.3 ug/ml for 3 hrs; type: functional
# [29] = tested on: Mycobacterium tuberculosis; assay: Antimicrobial activity against 3 weeks old culture of Mycobacterium tuberculosis H37Rv assessed as 1:16 serum inhibitory titers treated with blood from 25 mg/kg, po dosed Swiss mouse collected after 1 hrs; type: functional, organism-based; parameters: dose 25 mg/kg
structure (smiles),measurement,setting,value
NC(=O)c1cnccn1 [PYRAZINAMIDE],log10CFU/ml,[1],0.26
same,log10CFU/ml,[2],0.08
CO[C@H]1/C=C/O[C@@]2(C)Oc3c(C)c(O)c4c(O)c(c(/C=N/N5CCN(C)CC5)c(O)c4c3C2=O)NC(=O)/C(C)=C\C=C\[C@H](C)[C@H](O)[C@@H](C)[C@@H](O)[C@@H](C)[C@H](OC(C)=O)[C@@H]1C [RIFAMPIN],log10CFU/ml,[3],4.63
same,log10CFU/ml,[4],1.32
same,log10CFU/ml,[5],6.36
C(=NC1CCCCC1)=NC1CCCCC1 [DICYCLOHEXYLCARBODIIMIDE],log10CFU/ml,[6],7.43
same,log10CFU/ml,[7],7.37
CCN(CC)C(=S)[S-].[Na+] [DITIOCARB SODIUM],MBC,[8],8 µg/mL
same,MIC,[8],4 µg/mL
same,log10CFU/ml,[9],7.22
same,log10CFU/ml,[10],0.96
same,log10CFU/ml,[11],3.18
same,log10CFU/ml,[12],2.07
same,log10CFU/ml,[13],1.28
same,log10CFU/ml,[14],0.14
same,log10CFU/ml,[15],1.73
same,MIC,[16],1 µg/mL
same,log10CFU/ml,[17],6.03
same,Activity,[18],Active
same,Activity,[19],Active
CCN(CC)C(=S)SSC(=S)N(CC)CC [DISULFIRAM],MIC,[8],8 µg/mL
S=C(S)N1CCCC1 [PYRROLIDINE DITHIOCARBAMATE],log10CFU/ml,[20],0.13
same,log10CFU/ml,[21],0.89
same,MIC,[22],64 µg/mL
same,MBC,[8],0.5 µg/mL
same,MIC,[8],0.125 µg/mL
same,log10CFU/ml,[10],0.42
same,log10CFU/ml,[23],6.19
same,MIC,[24],16 µg/mL
same,log10CFU/ml,[14],0.06
same,Activity,[25],0.5 µg/mL
same,log10CFU/ml,[26],2.65
same,log10CFU/ml,[27],0.94
same,log10CFU/ml,[28],7.1
NNC(=O)c1ccncc1 [ISONIAZID],Activity,[29],Active
same,MBC,[8],0.12 µg/mL
same,MIC,[8],0.06 µg/mL
same,Activity,[25],0.25 µg/mL
